Read-outs that look alike come from different tables or passages of the source.
Key:
[1] = test system: adherence to medication regime; conditions: person
Source text: As a result, taking medication becomes an automatic activity which doesn't require a high level of attention and motivation.
The individual experiences an improvement in the ability to efficiently and effectively attend to a task in hand, without also needing to expend extra cognitive effort to remember which medication to take and at what times.

[2] = test system: individuals with sleep disorders; assay: Sleep disorders, clinical observation; format: in vivo, human; conditions: person, chronic insomnia, restless legs; sodium valproate added to dexamphetamine 25 mg
[3] = test system: individuals with dysthymia; assay: Treatment of dysthymia, clinical observation; format: in vivo, human; conditions: person, PTSD, treated ADHD, sodium valproate 100 mg a day
Source text: The inventor has noted in the clinical setting that individuals suffering with symptoms consistent with a diagnosis of dysthymia, experience a significant abatement from their negative and sometimes intrusive thought patterns on commencement of a low dose anti-epileptic drug. The inventor has also noted in the clinic that the beneficial effects that are noted on commencement of this combination can be further enhanced synergistically, by the use of a psycho-stimulant. These individuals may or may not meet the full criteria for a DSM IV diagnosis consistent with ADHD.
A number of individuals with symptoms of dysthymia report that the depression has been present since adolescence, and finally present in the clinic, after an acute major depressive episode. They are able to achieve a partial resolution from the symptoms of depression with appropriate pharmacological and psychological treatment. Unfortunately, their negative thought patterns are more persistent and can be misinterpreted as a failure to adequately respond to antidepressant therapy. In actuality these symptoms predate the acute episode, and it is not surprising therefore that they don't abate following treatment. […] These subsequent outcomes lead to an improvement in general interpersonal functioning, which in itself contributes to psychosocial stability. […]

[4] = test system: individuals with developmental dyspraxia / poor coordination; assay: Treatment of developmental dyspraxia, clinical observation; format: in vivo, human; conditions: person
Source text: Many of the individuals treated at this clinic, with a diagnosis of ADHD and/or pervasive development disorder such Asperger's Syndrome or autism also present with symptoms consistent with a diagnosis of a developmental coordination disorder. They are often described as ‘unco’ (unco-ordinated) by their peers and experience victimization, poor self-esteem and frustration as a consequence of their poor coordination. […] Individuals have described a sense of having more time to coordinate movements and to understand and integrate their own activity appropriately within a team sport such as soccer, which has previously eluded them. Individuals have felt frustration at being able to practise repeatedly an activity or skill only to be unable to put it into practice when required, within the play of a match. It is proposed that individuals were previously unable to process and plan their own coordination but remain aware of the general activity in which they were participating.

[5] = test system: individuals with MCI or dementia; assay: Mild cognitive impairment and dementia, clinical cases (Developmental Eye Movement test, Alzheimer's Quick Test); format: in vivo, human; conditions: person
Source text: A married person with a history of good cognitive functioning until last 4-5 yrs when noted by both their spouse and themself to becoming increasingly socially withdrawn primarily because of the difficulty in listening without distraction during social interaction, no known childhood or adult history of prior attentional or impulsive disorders. It has been clinically observed by the inventor that individuals treated with low dose antiepileptic were enhanced in their ability to discriminate irrelevant from the relevant sound was enhanced. […] On ceasing the medication there was an initial improvement again over the preceding 3 to 7 days followed by a loss of the therapeutic effects and returned to their pre-medication function. On the ressumption of the 12.5 mg phenytoin there was a return of the improved function. On this second occasion they were more aware of the benefits and also the gradual return of the detrimental clinic effects. During the clinical assessment it was noted that they had more flexibility in their conversation and more natural use of non-verbal cues, there was also enhancement of their egocentric gaze. […] These benefits were also noted by their spouse. […] Again these medications were ceased resulting in a loss of associated benefits. With each trial of medication they became more apparent to the patient and their spouse of the benefits of the therapy. They attempted whilst not taking the medication to communicate and follow the conversation in a way that they had been able to whilst on treatment. They found when attempting to do so they became mentally exhausted and unable to sustain the effort required for the interaction. The improvements noted clinically and also recorded using the Developmental Eye Movement test and a measure of parietal function the Alzheimer's Quick Test. Married person diagnosed with fronto-temporal dementia. they had been assessed by neuropsychologist, and geriatrician and psychiatrist to confirm this diagnosis. […] They then relied on others to make decisions for […]. They had gradually become socially disengaged finding such interactions distressing and demanding. […] Despite ongoing difficulties of word finding they were able to socially interact more spontaneously than they had done for many years. And have confidence in areas of conversation that they previously would have avoided. […] On two occasions the medication was withdrawn and then reintroduced, due to the experimental nature of treatment and concern that there might be a significant placebo effect. […] Following the subsequent reduction there was a return of the improvement previously noted.

adults with ADHD = test system: adults with ADHD
Experimental: In the clinical setting a number of adults with ADHD experienced a combination therapy of stimulant medication (dexamphetamine) in combination with sodium valproate (VPA). The initial dosages used were from 15 to 70 mg/day of dexamphetamine and from 100 to 700 mg/day of VPA (Epilim) (=approximately 2 to 10 mg/kg/day).
The determination of the dose for the dexamphetamine was undertaken in a clinical sensitive open label manner. The dose was titrated upwards dependent on the clinical response and the freedom from side-effects. The dose range was between 15 and 70 mg a day. The frequency of the dosing also varied dependent upon the clinical response. The usual dose interval was between two to four hours. This dosing adjustment took place prior to the commencement of the sodium valproate. The sodium valproate medication was initiated once a day at 50 mg tablet or elixir and titrated upwards dependent on response, but not more than one increase every three days. The dose was given as a once or twice a day regime. During the titration phase, if clinically possible, no other adjustments to the pharmacotherapy were undertaken.

[6] = test system: individual with a history of a head injury; assay: Head injury with acquired ADHD syndrome, clinical case; format: in vivo, human; conditions: person
Source text: A person, no history of ADHD in childhood. Involved in a serious motor vehicle accident the with a depressed skull fracture and frontal lobe involvement. Subsequent history consistent with a acquired syndrome of ADHD. Subsequent development of co-morbid diagnoses included in alcohol dependence, pathological gambling and major depression.

SMILES: CCCC(CCC)C(=O)O.[Na] [sodium valproate, sodium di-n-propylacetic acid]
- clinical outcome (case) ([1]; complex regime, no ADHD, ASD or dementia, Sodium valproate 100 mg added): enhanced ability to track their thoughts with less effort
- clinical outcome (case) ([1]; sodium valproate reduced to 100 mg with dexamphetamine 40 mg): improved efficacy, cognition, organisation and compliance with medication
- clinical outcome on sleep (case) [2]: less effort was required to initiate sleep
- clinical outcome (case) [3]: could read without distraction
- clinical outcome (case) ([4]; ADHD, dexamphetamine 25 mg daily augmented with atomexetine 60 mg and sodium valproate 150 mg): Significant improvement in psychosocial functioning
- clinical outcome (case) ([4]; Sodium valproate 50 mg increased to 100 mg with stimulant): improved coordination, improved school attendance, improved cognition and report grades
- clinical outcome (case) ([5]; sodium valproate 40 mg): enhanced ability to follow the train of conversation
- clinical outcome (case) ([5]; sodium valproate 80 mg): loss of these benefits
- clinical outcome (case) (adults with ADHD; adult female, sodium valproate maximum 150 mg added to methylphenidate): Improvement
- group outcome of combination therapy (adults with ADHD; adults with ADHD, Methylphenidate 40 mg/d, Valproate 100 mg/d, Phenytoin 50 mg/d): successfully treated
- clinical assessment under combination therapy (adults with ADHD; adults with ADHD, Valproate 50-300 mg/d with Dexamphetamine 20-75 mg/d): overall improvement in psychosocial functioning
- group outcome of combination therapy (adults with ADHD; adults with ADHD, dexamphetamine 20-45 mg/d, Valproate 100-400 mg/d, Phenytoin 12.5-50 mg/d): successfully treated
- group outcome of combination therapy (adults with ADHD; adults with ADHD, median 40 mg/d Dexamphetamine, 120 mg/d Sodium Valproate, 25 mg/d Topiramate): successfully treated
- group outcome of combination therapy (adults with ADHD; adults with ADHD, methylphenidate 30-125 mg/d with Valproate 50-200 mg/d): successfully treated
- effect of higher doses (adults with ADHD; human, in vivo): general cognitive slowing and the resultant loss of efficacy
- clinical outcome (case) (adults with ADHD; person, ADHD, anorexia nervosa, borderline personality disorder, sodium valproate 200 mg with dexamphetamine): responded
- clinical outcome (case) (adults with ADHD; person, ADHD, low dose sodium valproate 50 mg added to psycho stimulant): improvement in their egocentric gaze and improved cognition
- clinical outcome (case) (adults with ADHD; person, ADHD, sodium valproate 100 mg a day added to dexamphetamine 40 mg): improvement with more organised thoughts
- self-described improvement in ability to study (adults with ADHD; person, ADHD, sodium valproate (50 mg) added to psycho stimulant): 50%
- clinical outcome (case) (adults with ADHD; person, 100 mg sodium valproate added to methylphenidate 55 mg): enhanced ability to maintain conversation, improved cognition, improved assertiveness and self organisation
- clinical outcome (case) (adults with ADHD; person, sodium valproate (up to 500 mg a day) added to dexamphetamine 20 mg): Further benefit
- clinical outcome (case) (adults with ADHD; person, sodium valproate maximum 400 mg added to dexamphetamine): good effect
- clinical outcome (case) (adults with ADHD; person, valproate dose reached 150 mg, with psycho stimulant): benefits were lost
- clinical outcome (case) ([6]; sodium valproate 150 mg added to dexamphetamine 50 mg): Improved social interaction and egocentric eye gaze
- clinical outcome (case) ([6]; sodium valproate above 150 mg): loss of benefit

From patent US10028971B2, “Compositions and methods for treating psychiatric disorders” (GOSFORTH CENTRE (HOLDINGS) PTY LTD., priority 2008, dated 2018)
